The source of these data is ChEMBL document CHEMBL1121944, “Conformation-activity study of 4-phenylpiperidine analgesics” (1982).

Broadly, the ED50 is the midpoint of the dose-response relation. Read a high ED50 as weaker potency.

A short description of experiment [1]: Analgesic activity was determined. It is filed as functional.
Experiment [2] in a line: Relative potency was determined to 3-dimethyl prodine after brain penetration. It is filed as functional.

Compound `CCC(=O)OC1(c2ccccc2)CCN(C)CC1` displayed an ED50 in experiment [1] of 1 mg/kg. This compound also displayed a Relative potency in experiment [2] of 1.
In the same order, the values of `CCC(=O)OC1(c2ccccc2)CCN(C)CC1C` (stereo unspecified) [ALPHAPRODINE] are 1.45 mg/kg and 1.24.
For `CCC(=O)O[C@@]1(c2ccccc2)CCN(C)C[C@@H]1C` [BETAPRODINE], the ED50 in experiment [1] was found to be 5.21 mg/kg. In experiment [2], this compound yielded a Relative potency of 1.77.
